The values below come from patent publication US10815224B2, “Monocyclic heteroaryl substituted compounds” (Bristol-Myers Squibb Company, priority 2016, dated 2020).

The target in the assay is T1, PAR4 (Homo sapiens, UniProt Q96RI0).
T1 construct: expressed in transfected cells; host or cells: HEK293 PAR4 Clone 1.2A (BMS Arctic ID 383940)
T1 sequence (Q96RI0 18-385): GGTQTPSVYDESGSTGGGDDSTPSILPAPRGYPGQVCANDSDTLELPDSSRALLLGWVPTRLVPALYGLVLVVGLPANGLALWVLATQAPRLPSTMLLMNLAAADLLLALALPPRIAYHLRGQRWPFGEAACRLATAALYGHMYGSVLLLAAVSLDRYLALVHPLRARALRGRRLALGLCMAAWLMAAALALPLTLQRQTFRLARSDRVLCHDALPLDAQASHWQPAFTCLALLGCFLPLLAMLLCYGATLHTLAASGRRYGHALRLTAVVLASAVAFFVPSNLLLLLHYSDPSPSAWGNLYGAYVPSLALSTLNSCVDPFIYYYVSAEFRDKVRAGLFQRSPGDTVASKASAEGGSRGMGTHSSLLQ
The experiment in a line: PAR4 FLIPR assay: calcium mobilization in PAR4-expressing HEK293 cells. Format: cell-based. From the text:
The FLIPR assay is an exemplary in vitro assay for measuring the activity of the PAR4 antagonists of the present invention. In this assay, intracellular calcium mobilization is induced in PAR4 expressing cells by a PAR4 agonist and calcium mobilization is monitored.
HEK293 cells stably expressing PAR4 were generated by a standard method of transfection of human PAR4 (F2R23) cDNA expression vector and selected based on PAR4 protein expression or mRNA expression. […] Therefore, the same cells were also used to determine selectivity against PAR1 and agonist activity for both receptors.
FLIPR-based calcium mobilization assay in HEK293 cells was used to measure PAR4 antagonism, agonism, and selectivity against PAR1. […] Counter screens for agonist activity and PAR1 antagonist activity were also performed. […] Cells were plated overnight prior to the experiment in a black 384-well Purecoat Amine clear bottom plate (Becton Dickinson Biosciences, San Jose, Calif.) at 10,000 cells/well in 30 μL growth medium and incubated in a humidified chamber at 37° C. with 5% CO2 overnight. Prior to compound addition, the cell medium was replaced with 40 μL of 1× calcium and magnesium-containing Hank's Balanced Saline Solution (HBSS) (with 20 mM HEPES) and 1:1000 diluted fluorescent calcium indicator (Codex Biosolutions, Gaithersburg, Md.). After a 30 minute incubation period at 37° C., and a further 30 minute incubation and equilibration period at room temperature, 20 μL test compound (diluted in 1×HBSS buffer) was added at various concentrations at 0.17% dimethyl sulfoxide (DMSO) final concentration. Changes in fluorescence intensity were measured using a Functional Drug Screening System (FDSS, Hamamatsu, Japan) to determine agonist activities. The cells were then incubated for 30 minutes at room temperature followed by addition of 20 μL of agonist peptide for antagonist activity measurement. […] Compound potency was derived from 11-point concentration-response curves.
(In general: A change in cytosolic calcium serves as a functional read-out for many receptors and channels.)
As a reminder, the IC50 is the midpoint of a concentration-inhibition curve. On to `COc1cnc2c(-c3cc(-c4ccccc4)no3)cc(C)cc2n1` [Example 1, 5-(2-methoxy-7-methylquinoxalin-5-yl)-3-phenylisoxazole], for which the concentration for half-maximal inhibition (IC50) came to 0.08 µM.
For the compound `Cc1cc(-c2cnn(-c3ccccc3)c2)c2ncc(OC(F)F)nc2c1` [Example 2, 2-(difluoromethoxy)-7-methyl-5-(1-phenyl-1H-pyrazol-4-yl)quinoxaline], the IC50 is 0.79 µM.
Under `Cc1cc(-c2cnc(-c3ccccc3)s2)c2ncc(OC(F)F)nc2c1` [Example 3, 5-(2-(difluoromethoxy)-7-methylquinoxalin-5-yl)-2-phenylthiazole] stands 0.33 µM; under `Cc1cc(-c2ncc(C)s2)c2ncc(OC(F)F)nc2c1` [Example 4, 2-(2-(difluoromethoxy)-7-methylquinoxalin-5-yl)-5-methylthiazole], 0.52 µM; under `Cc1cc(-c2ccsn2)c2ncc(OC(F)F)nc2c1` [Example 5, 3-(2-(difluoromethoxy)-7-methylquinoxalin-5-yl)isothiazole], 0.94 µM.
The same measure for `Cc1cc(-c2nc(C)c(-c3cccc(O)c3)s2)c2ncc(OC(F)F)nc2c1` [Example 6, 3-(2-(2-(difluoromethoxy)-7-methylquinoxalin-5-yl)-4-methylthiazol-5-yl)phenol]: 0.001 µM.
Under `Cc1cc(-c2ncc(Cc3ccccc3)s2)c2ncc(OC(F)F)nc2c1` [Example 7, 5-benzyl-2-(2-(difluoromethoxy)-7-methylquinoxalin-5-yl)thiazole] stands 0.095 µM.
With `C=Cc1csc(-c2cc(C)cc3nc(OC(F)F)cnc23)n1` [Example 8, 2-(2-(difluoromethoxy)-7-methylquinoxalin-5 yl)-4-vinylthiazole], the IC50 is 0.1 µM.
The same measure for `Cc1cc(-c2nc(C)c(-c3ccn[nH]3)s2)c2ncc(OC(F)F)nc2c1` [Example 9, 2-(2-(difluoromethoxy)-7-methylquinoxalin-5-yl)-4-methyl-5-(1H-pyrazol-5-yl)thiazole]: 0.005 µM.
The same measure for `Cc1cc(-c2nc(C3CC3)cs2)c2ncc(OC(F)F)nc2c1` [Example 10, 4-cyclopropyl-2-(2-(difluoromethoxy)-7-methylquinoxalin-5-yl)thiazole]: 0.3 µM; for `Cc1cc(-c2nc(C)c(-c3cc(F)ccc3O)s2)c2ncc(OC(F)F)nc2c1` [Example 11, 2-(2-(2-(difluoromethoxy)-7-methylquinoxalin-5-yl)-4-methylthiazol-5-yl)-4-fluoropheno]: 0.0075 µM.
On to `Cc1cc(-c2nc(C)c(-c3c(O)cccc3F)s2)c2ncc(OC(F)F)nc2c1` [Example 12, 2-(2-(2-(difluoromethoxy)-7-methylquinoxalin-5-yl)-4-methylthiazol-5-yl)-3-fluoropheno], for which the IC50 is 0.0081 µM.
With `Cc1cc(-c2ncc(N3CCCCC3)s2)c2ncc(OC(F)F)nc2c1` [Example 13, 2-(2-(difluoromethoxy)-7-methylquinoxalin-5-yl)-5-(piperidin-1-yl)thiazole], the IC50 was determined as 0.012 µM.
The same measure for `Cc1cc(-c2ncc(-c3cncc(O)c3)s2)c2ncc(OC(F)F)nc2c1` [Example 14, 5-(2-(2-(difluoromethoxy)-7-methylquinoxalin-5-yl)thiazol-5-yl)pyridin-3-ol]: 0.17 µM.
The same measure for `Cc1cc(-c2nc(C)c(-c3ccccc3O)s2)c2ncc(OC(F)F)nc2c1` [Example 15, 2-(2-(2-(difluoromethoxy)-7-methylquinoxalin-5-yl)-4-methylthiazol-5-yl)phenol]: 0.0059 µM.
In the case of `Cc1cc(-c2ncc(-c3ccccc3C(F)(F)F)s2)c2ncc(OC(F)F)nc2c1` [Example 16, 2-(2-(difluoromethoxy)-7-methylquinoxalin-5-yl)-5-(2-(trifluoromethyl)phenyl)thiazole], the half-maximal inhibitory concentration (IC50) was 0.11 µM.
The same measure for `Cc1cc(-c2ncc(C3CCCCC3)s2)c2ncc(OC(F)F)nc2c1` [Example 17, 5-cyclohexyl-2-(2-(difluoromethoxy)-7-methylquinoxalin-5-yl)thiazole]: 0.075 µM; for `COCc1cnc2c(-c3ncc(-c4ccccc4)s3)cc(C)cc2n1` [Example 18, 2-(2-(methoxymethyl)-7-methylquinoxalin-5-yl)-5-phenylthiazole]: 0.0062 µM; for `Cc1cc(-c2ncc(-c3cccc(F)c3O)s2)c2ncc(OC(F)F)nc2c1` [Example 19, 2-(2-(2-(difluoromethoxy)-7-methylquinoxalin-5-yl)thiazol-5-yl)-6-fluorophenol]: 0.0059 µM.
Regarding `Cc1ccc(O)c(-c2cnc(-c3cc(C)cc4nc(OC(F)F)cnc34)s2)c1` [Example 20, 2-(2-(2-(difluoromethoxy)-7-methylquinoxalin-5-yl)thiazol-5-yl)-4-methylphenol], the IC50 turned out to be 0.031 µM.
`Cc1cc(-c2ncc(-c3cc(F)ccc3O)s2)c2ncc(OC(F)F)nc2c1` [Example 21, 2-(2-(2-(difluoromethoxy)-7-methylquinoxalin-5-yl)thiazol-5-yl)-4-fluorophenol]: the IC50 is 0.0088 µM.
Consider `Cc1cc(-c2ncc(-c3cc(Cl)ccc3O)s2)c2ncc(OC(F)F)nc2c1` [Example 22, 2-(2-(2-(difluoromethoxy)-7-methylquinoxalin-5-yl)thiazol-5-yl)-4-chlorophenol], for which the IC50 is 0.018 µM.
The same measure for `Cc1cc(-c2ncc(-c3cccc(Cl)c3O)s2)c2ncc(OC(F)F)nc2c1` [Example 23, 2-(2-(2-(difluoromethoxy)-7-methylquinoxalin-5-yl)thiazol-5-yl)-6-chlorophenol]: 0.014 µM.
In the case of `Cc1cc(-c2ncc(-c3c(O)cccc3F)s2)c2ncc(OC(F)F)nc2c1` [Example 24, 2-(2-(2-(difluoromethoxy)-7-methylquinoxalin-5-yl)thiazol-5-yl)-3-fluorophenol], the IC50 worked out at 0.0083 µM.
Under `Cc1cc(-c2ncc(-c3cc(O)ccc3F)s2)c2ncc(OC(F)F)nc2c1` [Example 25, 3-(2-(2-(difluoromethoxy)-7-methylquinoxalin-5-yl)thiazol-5-yl)-4-fluorophenol] stands 0.015 µM; under `Cc1cc(-c2ncc(-c3cc(O)cc(F)c3)s2)c2ncc(OC(F)F)nc2c1` [Example 26, 3-(2-(2-(difluoromethoxy)-7-methylquinoxalin-5-yl)thiazol-5-yl)-5-fluorophenol], 0.023 µM; under `Cc1cc(-c2ncc(-c3cc(O)ccc3OC(F)(F)F)s2)c2ncc(OC(F)F)nc2c1` [Example 27], 0.02 µM.
The same measure for `Cc1cc(-c2ncc(-c3ccccc3)s2)c2ncc(OC(F)F)nc2c1` [Example 28, 2-(2-(difluoromethoxy)-7-methylquinoxalin-5-yl)-5-phenyl thiazole]: 0.043 µM; for `Cc1cc(-c2ncc(-c3cccnc3)s2)c2ncc(OC(F)F)nc2c1` [Example 29, 2-(2-(difluoromethoxy)-7-methylquinoxalin-5-yl)-5-(pyridin-3-yl)thiazole]: 0.06 µM; for `Cc1cc(-c2ncc(-c3ccccc3O)s2)c2ncc(OC(F)F)nc2c1` [Example 30, 2-(2-(2-(difluoromethoxy)-7-methylquinoxalin-5-yl)thiazol-5-yl)phenol]: 0.0088 µM.
Under `CCNC(=O)c1cnc(-c2cc(C)cc3nc(OC)cnc23)s1` [Example 31, N-ethyl-2-(2-methoxy-7-methylquinoxalin-5-yl)thiazole-5-carboxamide] stands 0.45 µM; under `COc1ccc(NC(=O)c2csc(-c3cc(C)cc4nc(OC(F)F)cnc34)n2)cc1` [Example 32, 2-(2-(difluoromethoxy)-7-methylquinoxalin-5-yl)-N-(4-methoxyphenyl)thiazole-4-carboxamide], 2.3 µM; under `Cc1cc(-c2nc(C(=O)N3CCC(CO)CC3)cs2)c2ncc(OC(F)F)nc2c1` [Example 33, (2-(2-(difluoromethoxy)-7-methylquinoxalin-5-yl)thiazol-4-yl)(4-(hydroxymethyl)piperidin-1-yl)methanone], 0.57 µM.
As to `Cc1cc(-c2nccs2)c2ncc(OC(F)F)nc2c1` [Example 34, 2-(2-(difluoromethoxy)-7-methylquinoxalin-5-yl)thiazole], the IC50 was determined as 0.76 µM.
The same measure for `Cc1cc(-c2nnc(-c3ccccc3)s2)c2ncc(OC(F)F)nc2c1` [Example 35, 2-(2-(difluoromethoxy)-7-methylquinoxalin-5-yl)-5-phenyl-1,3,4-thiadiazole]: 0.025 µM.
